Assay results taken from patent publication US12516087B2, “Methods and compositions comprising therapeutic gamma peptide nucleic acid-based molecules” (UNIVERSITY OF IOWA RESEARCH FOUNDATION, priority 2022, dated 2026).
No end group written: not given here.

Tested on: endothelial cells (HUVECs)
Experiment: Binding of TAMRA-labelled γPNA to cells (fluorescence intensity)
Type: cell-based, human
Details: 30 minutes incubation, fluorescence intensity normalized to protein
Description: FIGS. 11A and 11B. […] The cells were incubated with TAMRA-e-γP-122-I or TAMRA-γP-122-I for 30 minutes, washed three times, lysed, and the fluorescence intensity was measured and normalized to protein. RFI: Rhodamine (5-TAMRA) fluorescence intensity (561/600).
The inventors generated an endothelial cell targeting version of the disclosed γ-PNA inhibitors of miR-122 by fusing the peptide VHPK (SEQ ID NO: 4) to the γ-PNAs of the instant disclosure (“VHPK-γ-PNA fusion”). VHPK binds to vascular cell adhesion molecule 1 (VCAM1) which is highly expressed on the surface of endothelial cells.

Substance: TAMRA-e-γP-122-I: endothelial cell targeting γ-PNA miR-122 inhibitor fused to peptide VHPK (SEQ ID NO: 4), TAMRA-labelled (VHPKQHRQQSKQC; also: fused to γ-PNA miR-122 inhibitor, TAMRA-labelled, place not given here)
- binding to endothelial cells (HUVECs) versus untagged γ-PNA: Increased binding
- binding to endothelial cells versus HEK-293 cells: increased binding to endothelial cells as compared to human embryonic kidney (HEK-293) cells
- binding to endothelial cells (HUVECs) versus untagged γ-PNA (listed as VHPK-γ-PNA fusion): increased binding
